Experimental data from patent EP0490450A1, “Heterocyclic carboxylic esters, methods for their preparation and their use for the preparation of gastrointestinal medicines” (YAMANOUCHI EUROPE B.V., priority 1990, dated 1992).

Test system: Helicobacter pylori
Experiment: Paper disc inhibition assay on blood agar plates (inhibition zone)
Type: cell-based
Experimental: The test organisms used in the inhibition assay were fresh isolates of Helicobacter pylori from patients with duodenal ulcer or non-ulcer dyspepsia, except strain NCTC 11637 which originates from a deposit freely available to the public. NCTC 11637 is a metronidazole resistant strain. All strains were stored frozen. For each inhibition assay fresh strains were thawed in a waterbath at 37°C. Helicobacter pylori strains were incubated with shaking (150 rpm) for 48 hours in 10 ml brain heart infusion […] containing 7% fetal calf serum at 37°C under an atmosphere of 10% CO₂, 5% O₂ and 85% N₂. After washing with phosphate buffered saline and centrifugation the pellet was resuspended and diluted until a density of 10-20 nephelometric turbidity units was achieved and subsequently smeared on blood agar plates. A paper disc with a diameter of 7 mm was placed in the centre of the plate. The test compounds were dissolved in dimethylsulfoxide (DMSO) and 20 µl of these solutions were applied to the disc. After three days of culturing at 37°C under microaerophilic conditions the inhibition zone was measured in mm.
Table I. In vitro activity of the compounds according to the invention on Helicobacter pylori. Inhibition zones are given in mm, 7 mm means no activity.
Compound GBR 24156, an ester of penicillin V and metronidazole has, in a concentration of 1.7 µg/ml, been compared with the combination of single substances penicillin V and metronidazole, both in a concentration of 0.85 µg/ml.
Table II. In vitro activity of GBR 24156 compared to the activity of penicillin V and metronidazole on Helicobacter pylori. Inhibition zones are given in mm; 7 mm means no activity.

[1] = Helicobacter pylori, 72 h, H. pylori strain A85, concentration 50 µg/ml, 7 mm means no activity
[2] = Helicobacter pylori, 72 h, H. pylori strain C85, concentration 50 µg/ml, 7 mm means no activity
[3] = Helicobacter pylori, 72 h, H. pylori strain D9, concentration 50 µg/ml (20 µl on 7 mm disc), 7 mm means no activity
[4] = Helicobacter pylori, 72 h, H. pylori strain D20, concentration 50 µg/ml, 7 mm means no activity
[5] = Helicobacter pylori, NCTC11637, 72 h, H. pylori strain NCTC 11637 (metronidazole resistant), concentration 50 µg/ml, 7 mm means no activity
[6] = Helicobacter pylori, 72 h, H. pylori strain A85, concentration 20 µg/ml, 7 mm means no activity
[7] = Helicobacter pylori, 72 h, H. pylori strain B104, concentration 20 µg/ml, 7 mm means no activity
[8] = Helicobacter pylori, 72 h, H. pylori strain C85, concentration 20 µg/ml, 7 mm means no activity
[9] = Helicobacter pylori, 72 h, H. pylori strain D9, concentration 20 µg/ml (20 µl on 7 mm disc), 7 mm means no activity
[10] = Helicobacter pylori, 72 h, H. pylori strain D20, concentration 20 µg/ml, 7 mm means no activity
[11] = Helicobacter pylori, 72 h, H. pylori strain D29, concentration 20 µg/ml, 7 mm means no activity
[12] = Helicobacter pylori, NCTC11637, 72 h, H. pylori strain NCTC 11637 (metronidazole resistant), concentration 20 µg/ml, 7 mm means no activity

Row | Structure (SMILES) | zone of inhibition at 50 µg/mL [1] | zone of inhibition at 50 µg/mL [2] | zone of inhibition at 50 µg/mL [3] | zone of inhibition at 50 µg/mL [4] | zone of inhibition at 50 µg/mL [5] | zone of inhibition at 20 µg/mL [6] | zone of inhibition at 20 µg/mL [7] | zone of inhibition at 20 µg/mL [8] | zone of inhibition at 20 µg/mL [9] | zone of inhibition at 20 µg/mL [10] | zone of inhibition at 20 µg/mL [11] | zone of inhibition at 20 µg/mL [12] | other results
1 | Cc1ncc([N+](=O)[O-])n1CCOC(=O)[C@@H]1N2C(=O)[C@@H](NC(=O)COc3ccccc3)[C@H]2SC1(C)C [GBR 24156, 2-(2-Methyl-5-nitroimidazol-1-yl)ethyl (3S,5R,6R)-2,2-dimethyl-6-phenoxy acetamidopenam-3-carboxylate] | 60 mm | 22 mm | 48 mm | 51 mm | 41 mm |  |  |  |  |  |  |  | in vitro growth inhibition (in words) (Helicobacter pylori NCTC 11637, known for resistance against metronidazole): able to inhibit in vitro growth; zone of inhibition at 50 µg/mL (Helicobacter pylori, 72 h, H. pylori strain 88-A-13, concentration 50 µg/ml, 7 mm means no activity): 30 mm; zone of inhibition at 50 µg/mL (Helicobacter pylori, 72 h, H. pylori strain B104, concentration 50 µg/ml, 7 mm means no activity): 42 mm; zone of inhibition at 50 µg/mL (Helicobacter pylori, 72 h, H. pylori strain D29, concentration 50 µg/ml, 7 mm means no activity): 77 mm; zone of inhibition at 1.7 µg/mL (Helicobacter pylori, NCTC11637, 72 h, H. pylori strain NCTC 11637, concentration 1.7 µg/ml, 7 mm means no activity): 19 mm
2 | Cc1ncc([N+](=O)[O-])n1CCOC(=O)COC(=O)[C@@H]1N2C(=O)[C@@H](NC(=O)COc3ccccc3)[C@H]2SC1(C)C [GBR 24157, [2-(2-Methyl-5-nitroimidazol-1-yl)ethoxy] carbonylmethyl (3S,5R,6R)-2,2-dimethyl-6-phenoxyacetamidopenam-3-carboxylate] |  |  |  |  |  | 10 mm | 11 mm | 14 mm | 28 mm | 24 mm | 13 mm | 7 mm | 
3 | Cc1ncc([N+](=O)[O-])n1CCOC(=O)OCOC(=O)[C@@H]1N2C(=O)[C@@H](NC(=O)COc3ccccc3)[C@H]2SC1(C)C [GBR 24158, [2-(2-Methyl-5-nitroimidazol-1-yl)ethoxy]carbonyloxymethyl (3S,5R,6R)-2,2-dimethyl-6-phenoxyacetamidopenam-3-carboxylate] |  |  |  |  |  | 19 mm | 27 mm | 29 mm | 47 mm | 34 mm | 20 mm | 15 mm | 
4 | Cc1ncc([N+](=O)[O-])n1CCOC(=O)C(C)(C)O/N=C(\C(=O)N[C@@H]1C(=O)N(S(=O)(=O)O)[C@H]1C)c1csc(N)n1 [GBR 24164] |  |  |  |  |  |  |  |  |  |  |  |  | zone of inhibition at 100 µg/mL (Helicobacter pylori, 72 h, H. pylori strain B104, concentration 100 µg/ml, 7 mm means no activity): 20 mm; zone of inhibition at 100 µg/mL (Helicobacter pylori, 72 h, H. pylori strain C85, concentration 100 µg/ml, 7 mm means no activity): 7 mm; zone of inhibition at 100 µg/mL (Helicobacter pylori, 72 h, H. pylori strain D9, concentration 100 µg/ml (20 µl on 7 mm disc), 7 mm means no activity): 16 mm; zone of inhibition at 100 µg/mL (Helicobacter pylori, 72 h, H. pylori strain D20, concentration 100 µg/ml, 7 mm means no activity): 7 mm; zone of inhibition at 100 µg/mL (Helicobacter pylori, 72 h, H. pylori strain D29, concentration 100 µg/ml, 7 mm means no activity): 12 mm; zone of inhibition at 100 µg/mL (Helicobacter pylori, NCTC11637, 72 h, H. pylori strain NCTC 11637 (metronidazole resistant), concentration 100 µg/ml, 7 mm means no activity): 7 mm
5 | Cc1ncc([N+](=O)[O-])n1CCOC(=O)COC(=O)C(C)(C)O/N=C(\C(=O)N[C@@H]1C(=O)N(S(=O)(=O)O)[C@H]1C)c1csc(N)n1 [GBR 24165] | 29 mm | 10 mm | 36 mm | 12 mm | 33 mm |  |  |  |  |  |  |  | 
6 | Cc1ncc([N+](=O)[O-])n1CCOC(=O)COC(=O)[C@@H]1N2C(=O)[C@@H](NC(=O)[C@H](N)c3ccc(O)cc3)[C@H]2SC1(C)C [GBR 24208, [2-(2-Methyl-5-nitroimidazol-1-yl)ethoxy]carbonylmethyl(3S,5R,6R)-6-[(R)-2-amino-2-(4-hydroxyphenyl)acetamido]-2,2-dimethylpenam-3-carboxylate] |  |  |  |  |  |  |  |  |  |  |  |  | zone of inhibition at 268 µg/mL (Helicobacter pylori, 72 h, H. pylori strain A85, concentration 268 µg/ml, 7 mm means no activity): 10 mm; zone of inhibition at 268 µg/mL (Helicobacter pylori, 72 h, H. pylori strain D9, concentration 268 µg/ml (20 µl on 7 mm disc), 7 mm means no activity): 15 mm; zone of inhibition at 268 µg/mL (Helicobacter pylori, NCTC11637, 72 h, H. pylori strain NCTC 11637 (metronidazole resistant), concentration 268 µg/ml, 7 mm means no activity): 10 mm
